Laboratory results as given in patent US20100196476A1, “PROCESS FOR THE PREPARATION AND PHARMACEUTICAL FORMULATIONS FOR 4-QUINOLINONES AND QUINOLINES AND USE THEREOF” (FUNDACAO UNIVERSIDADE FEDERAL DE SAO CARLOS, priority 2007, published 2010).

Assays:
[1] = molecular target: T1, Asp49 BthTX-II phospholipase A2 (Bothrops jararacussu, UniProt P45881); test: myotoxic activity in mice, BthTX-II; type: in vivo, B. jararacussu
T1 construct: isolated myotoxins (BthTX-I and II); from tissue; host or cells: venom of B. jararacussu
T1 sequence (P45881 17-138): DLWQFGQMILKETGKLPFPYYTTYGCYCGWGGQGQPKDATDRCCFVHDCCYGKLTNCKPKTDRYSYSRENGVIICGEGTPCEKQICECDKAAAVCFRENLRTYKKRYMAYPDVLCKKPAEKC

[2] = molecular target: T2, Lys49 BthTX-I phospholipase A2 (Bothrops jararacussu, UniProt Q90249); test: myotoxic activity in mice, BthTX-I; type: in vivo, B. jararacussu
T2 construct: isolated myotoxins (BthTX-I and II); from tissue; host or cells: venom of B. jararacussu
T2 sequence (Q90249 17-137 limits assumed): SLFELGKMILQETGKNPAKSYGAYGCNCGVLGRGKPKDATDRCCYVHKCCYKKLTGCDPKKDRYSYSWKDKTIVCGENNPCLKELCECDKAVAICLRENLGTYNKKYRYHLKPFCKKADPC

[3] = molecular target: T3, Class III metalloprotease BjussuMP-I (Bothrops jararacussu, UniProt Q1PHZ4); test: proteolytic activity in casein, BjussuMP-I; type: biochemical, B. jararacussu; conditions: ratio of 1:10 protease:inhibitor (m/m)
T3 construct: BjussuMP-I isolated from B. jararacussu; from tissue; host or cells: venom of B. jararacussu
T3 sequence (Q1PHZ4 134-547): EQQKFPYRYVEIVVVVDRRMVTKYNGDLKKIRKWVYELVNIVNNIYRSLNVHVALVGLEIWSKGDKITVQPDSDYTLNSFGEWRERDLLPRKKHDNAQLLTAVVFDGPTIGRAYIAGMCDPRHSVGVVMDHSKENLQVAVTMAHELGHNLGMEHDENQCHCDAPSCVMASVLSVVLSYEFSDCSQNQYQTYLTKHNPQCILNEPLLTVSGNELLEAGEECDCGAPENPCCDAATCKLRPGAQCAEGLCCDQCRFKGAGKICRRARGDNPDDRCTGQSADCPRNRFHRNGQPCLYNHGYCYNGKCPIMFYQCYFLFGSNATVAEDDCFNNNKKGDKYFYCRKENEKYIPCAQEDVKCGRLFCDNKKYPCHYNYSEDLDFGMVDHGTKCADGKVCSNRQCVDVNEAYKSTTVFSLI

## COc1ccc2[nH]c(CO)cc(=O)c2c1 [Compound 2, 2-hydroxymethyl-6-methoxy-1,4-dihydro-4-quinolinone]
[1]
  effect on myotoxic activity: inhibited
[2]
  effect on myotoxic activity: inhibited
[3]
  inhibition of proteolytic activity: ~70%
